From the NIST ThermoML archive (doi:10.1016/j.jct.2010.04.019)

Assay: molar heat capacity at constant pressure; xn = mol fraction of the nth substance listed
Conditions: 101 kPa, Liquid, Vacuum adiabatic calorimetry

O [water] + CC#N
x2 = 0
Conditions	molar heat capacity at constant pressure [J/K/mol]
283.15 K	75.52
298.15 K	75.29
313.15 K	75.27
328.15 K	75.34

CC#N [acetonitrile] + O
molar heat capacity at constant pressure [J/K/mol]
Conditions	283.15 K	298.15 K	313.15 K	328.15 K
x1 = 0.0112	76.78	76.64	76.74	76.89
x1 = 0.0194	77.58	77.54	77.7	77.9
x1 = 0.0286	78.38	78.45	78.67	78.89
x1 = 0.0383	79.1	79.27	79.51	79.77
x1 = 0.0497	79.91	80.02	80.18	80.51
x1 = 0.0611	80.52	80.57	80.8	81
x1 = 0.0702	80.89	80.95	81.21	81.46
x1 = 0.0804	81.26	81.33	81.57	81.9
x1 = 0.091	81.66	81.73	81.99	82.33
x1 = 0.1007	81.99	82.06	82.36	82.7
x1 = 0.2124	85.36	85.66	86.24	86.82
x1 = 0.3063	87.72	88.31	89.08	89.92
x1 = 0.3987	89.89	90.7	91.59	92.56
x1 = 0.4856	91.57	92.38	93.42	94.38
x1 = 0.6011	93.03	93.96	94.89	95.86
x1 = 0.7107	93.7	94.44	95.33	96.16
x1 = 0.8024	93.56	94.16	94.79	95.62
x1 = 0.9005	92.77	93.28	93.87	94.55
x1 = 0.9091	92.66	93.17	93.75	94.42
x1 = 0.9203	92.52	93.01	93.59	94.24
x1 = 0.9316	–	92.85	93.41	94.06
x1 = 0.9402	92.25	92.73	93.29	93.94
x1 = 0.9496	92.11	92.59	93.14	93.77
x1 = 0.9604	91.94	92.4	92.95	93.58
x1 = 0.9711	91.77	92.22	92.76	93.38
x1 = 0.9803	91.61	92.06	92.59	93.21
x1 = 0.991	91.42	91.87	92.39	93
x1 = 1	91.25	91.69	92.21	92.82
